Reference: PubChem BioAssay (NCI)
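The compound was tested at five concentrations on cells cultured in 96-well plates, with a 48-hour exposure period. At the GI50, growth is halved. TGI denotes the concentration required for complete inhibition of growth.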

Columns and labels:
Assay in all cases: NCI anticancer screen, dose series, 48 h
UACC-257 melanoma = test system: UACC-257 melanoma
HOP-62 NSCLC = test system: HOP-62 NSCLC
U251 CNS = test system: U251 CNS
MCF7 breast = test system: MCF7 breast
HCC-2998 colon = test system: HCC-2998 colon
CAKI-1 renal = test system: CAKI-1 renal
SW-620 colon = test system: SW-620 colon
LOX IMVI melanoma = test system: LOX IMVI melanoma
HL-60(TB) leukemia = test system: HL-60(TB) leukemia
EKVX NSCLC = test system: EKVX NSCLC
SR leukemia = test system: SR leukemia
TK-10 renal = test system: TK-10 renal
SK-MEL-28 melanoma = test system: SK-MEL-28 melanoma
HCT-116 colon = test system: HCT-116 colon
KM12 colon = test system: KM12 colon
IGROV1 ovarian = test system: IGROV1 ovarian
SNB-75 CNS = test system: SNB-75 CNS
RPMI-8226 leukemia = test system: RPMI-8226 leukemia
A549 NSCLC = test system: A549 NSCLC
NCI-H522 lung = test system: NCI-H522 lung
ACHN renal = test system: ACHN renal
NCI-H460 lung = test system: NCI-H460 lung
RXF 393 renal = test system: RXF 393 renal
NCI/ADR-RES ovarian = test system: NCI/ADR-RES ovarian
HS 578T breast = test system: HS 578T breast
K-562 leukemia = test system: K-562 leukemia
NCI-H226 lung = test system: NCI-H226 lung
CCRF-CEM leukemia = test system: CCRF-CEM leukemia

SMILES: COc1cc2c(/C=C3/C(=O)Nc4c3ccc3ccccc43)c(Cl)n(C)c2cc1C
- GI50 (UACC-257 melanoma): < 10 nM
- TGI (UACC-257 melanoma): 29.3 µM
- GI50 (HOP-62 NSCLC): 680 nM
- TGI (HOP-62 NSCLC): 16 µM
- GI50 (U251 CNS): 1260 nM
- TGI (U251 CNS): 12.8 µM
- GI50 (MCF7 breast): < 17.9 nM
- GI50 (HCC-2998 colon): < 47 nM
- GI50 (CAKI-1 renal): < 22.4 nM
- TGI (CAKI-1 renal): 12.6 µM
- GI50 (SW-620 colon): 1110 nM
- TGI (SW-620 colon): 11.8 µM
- GI50 (LOX IMVI melanoma): 137 nM
- TGI (LOX IMVI melanoma): 13.7 µM
- GI50 (HL-60(TB) leukemia): 59.7 nM
- TGI (HL-60(TB) leukemia): > 100 µM
- GI50 (EKVX NSCLC): 275 nM
- TGI (EKVX NSCLC): 6.29 µM
- GI50 (SR leukemia): 38.4 nM
- TGI (SR leukemia): 22.2 µM
- GI50 (TK-10 renal): 378 nM
- TGI (TK-10 renal): 17.3 µM
- TGI (SK-MEL-28 melanoma): > 47.7 µM
- GI50 (HCT-116 colon): < 44 nM
- GI50 (KM12 colon): < 15.6 nM
- TGI (KM12 colon): < 30.3 nM
- GI50 (IGROV1 ovarian): 42.4 nM
- TGI (IGROV1 ovarian): 16.1 µM
- TGI (SNB-75 CNS): 905 nM
- GI50 (RPMI-8226 leukemia): < 20.4 nM
- GI50 (A549 NSCLC): < 19.3 nM
- TGI (A549 NSCLC): 2010 nM
- GI50 (NCI-H522 lung): < 10 nM
- TGI (NCI-H522 lung): < 12.6 nM
- GI50 (ACHN renal): 400 nM
- TGI (ACHN renal): 19.5 µM
- GI50 (NCI-H460 lung): < 18.9 nM
- TGI (NCI-H460 lung): > 28 µM
- GI50 (RXF 393 renal): 20.3 nM
- TGI (RXF 393 renal): 2980 nM
- GI50 (NCI/ADR-RES ovarian): 24.8 nM
- TGI (NCI/ADR-RES ovarian): 62.9 nM
- GI50 (HS 578T breast): 358 nM
- TGI (HS 578T breast): 1890 nM
- GI50 (K-562 leukemia): 194 nM
- TGI (K-562 leukemia): 21.5 µM
- GI50 (NCI-H226 lung): 1270 nM
- TGI (NCI-H226 lung): 24.5 µM
- GI50 (CCRF-CEM leukemia): 73.1 nM
